From patent publication US10865384B2, “2,4,5-tri-substituted azole-based casein kinase 1 inhibitors as inducers for cardiomyogenesis” (AGENCY FOR SCIENCE, TECHNOLOGY AND RESEARCH, priority 2014, dated 2020)
Where two headings read alike, the source gives them in different places.

How the values were obtained:
[1] = molecular target: CK1δ (Homo sapiens (Human), UniProt P48730); assay: LanthaScreen Eu kinase binding assay, CK1δ
[2] = molecular target: p38α MAPK (Homo sapiens (Human), UniProt Q16539); assay: LanthaScreen Eu kinase binding assay, p38 MAPK (IM-32 to IM-44); conditions: LanthaScreen Eu binding assay (IM-32 to IM-44); read-out: p38α MAPK IC50 ± SEM
Experimental: The p38 MAPK IC50 values of selected compounds except IM-32 to IM-44 were determined using the HitHunter™ p38 MAP kinase binding assay from DiscoveRx Corporation (Fremont, Calif., USA). The p38 MAPK IC50 values of IM-32 to IM-44 and the CK1 IC50 values of selected compounds were determined using LanthaScreen™ Eu kinase binding assay from Invitrogen (Life Technologies, Carlsbad, Calif., USA). The assays were performed following the manufacturers' protocols in white 384-well plates (Cat. No. 3572; Corning Incorporated, Corning, N.Y., USA). SB203580 was used as the control in all assays. For the HitHunter™ p38 MAP kinase binding assay the compounds were dissolved in DMSO (5 mM stocks) and diluted to a final concentration of 2% (vol/vol) DMSO for all assays. Recombinant GST-tagged active p38α MAP kinase enzyme (Millipore, Billerica, Mass., USA) was used for the HitHunter™ p38 MAP kinase binding assay. For the LanthaScreen™ Eu kinase binding assay the compounds were dissolved in DMSO (5 mM stocks) and diluted to a final concentration of 1% (vol/vol) DMSO for all assays. Each data point was done in triplicate. The assay was run using JANUS Automated Workstation according to the protocol developed using WinPREP software (Perkin Elmer Inc., Waltham, Mass., USA). Tecan Infinite® M1000 microplate reader (Tecan Group Ltd., Minnedorf, Switzerland) was used for luminescence measurements (HitHunter™ p38 MAP kinase binding assay) and fluorescence measurements (LanthaScreen™ Eu kinase binding assay; ex=340 nm, em=665, 615 nm). All data analysis was performed using GraphPad Prism 5 software (GraphPad Software Inc.). Inhibition curves and IC50 values were generated by nonlinear regression analysis and data represent mean±SEM.
The in vitro IC50 values of the synthesized compounds against the relevant kinase targets are summarized. The IC50 values were determined using either the HitHunter™ p38 MAPK binding assay from DiscoveRx or the LanthaScreen™ Eu kinase binding assay (for p38alpha MAPK, CK1delta, and CK1epsilon) from Invitrogen.

[3] = molecular target: CK1ϵ (Homo sapiens (Human), UniProt P49674); assay: LanthaScreen Eu kinase binding assay, CK1ϵ
[4] = test system: hESC3 Nkx2.5eGFP/w cells; assay: Differentiation in 96-U bottom ultra-low attachment well plates, GFP area imaging; format: cell-based, human; conditions: 5 μM; for Average GFP %: after CHIR99021, read on day 14, GFP area over embryoid body size; for Average GFP μm^2 / Average Area μm^2: day 14; for Average Area μm^2: embryoid body size
[5] = test system: porcupine/Wnt; conditions: read-out: IC50 (published by companies), porcupine/Wnt inhibition; cited from earlier work
[6] = test system: H3 hESCs Nkx2.5eGFP/w; assay: High yield cardiomyocyte differentiation after 24 h CHIR99021 pre-treatment; format: cell-based, human
[7] = test system: p38α MAPK; conditions: read-out: IC50 (published by companies), p38α MAPK inhibition; cited from earlier work
[8] = test system: TNF-a; conditions: read-out: IC50 (published by companies), TNF-a inhibition; cited from earlier work
[9] = test system: p38 MAPK; conditions: read-out: IC50 (published by companies), p38 MAPK inhibition; cited from earlier work

Sequence of p38α MAPK (Q16539 whole entry, looked up): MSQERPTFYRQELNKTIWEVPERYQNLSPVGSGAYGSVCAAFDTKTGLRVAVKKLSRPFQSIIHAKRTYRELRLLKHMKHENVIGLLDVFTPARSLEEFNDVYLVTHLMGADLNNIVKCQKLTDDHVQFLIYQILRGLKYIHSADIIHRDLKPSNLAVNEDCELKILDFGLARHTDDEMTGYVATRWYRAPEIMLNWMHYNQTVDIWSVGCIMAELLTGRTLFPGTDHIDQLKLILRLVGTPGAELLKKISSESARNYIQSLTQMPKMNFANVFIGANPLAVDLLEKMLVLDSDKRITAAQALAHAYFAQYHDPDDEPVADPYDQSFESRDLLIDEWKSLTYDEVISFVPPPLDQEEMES
Sequence of CK1ϵ (P49674 whole entry): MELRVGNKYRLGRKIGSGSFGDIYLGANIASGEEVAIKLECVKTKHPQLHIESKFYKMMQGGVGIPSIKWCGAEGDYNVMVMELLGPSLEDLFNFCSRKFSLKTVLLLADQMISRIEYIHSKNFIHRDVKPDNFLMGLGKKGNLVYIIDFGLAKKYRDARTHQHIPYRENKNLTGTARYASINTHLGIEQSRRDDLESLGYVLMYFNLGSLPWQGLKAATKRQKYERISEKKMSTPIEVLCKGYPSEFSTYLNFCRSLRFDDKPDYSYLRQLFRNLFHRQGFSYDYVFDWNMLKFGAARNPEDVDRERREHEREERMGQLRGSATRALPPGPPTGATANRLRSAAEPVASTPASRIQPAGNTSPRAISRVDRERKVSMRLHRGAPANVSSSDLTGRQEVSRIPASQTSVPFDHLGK
Sequence of CK1δ (P48730 whole entry): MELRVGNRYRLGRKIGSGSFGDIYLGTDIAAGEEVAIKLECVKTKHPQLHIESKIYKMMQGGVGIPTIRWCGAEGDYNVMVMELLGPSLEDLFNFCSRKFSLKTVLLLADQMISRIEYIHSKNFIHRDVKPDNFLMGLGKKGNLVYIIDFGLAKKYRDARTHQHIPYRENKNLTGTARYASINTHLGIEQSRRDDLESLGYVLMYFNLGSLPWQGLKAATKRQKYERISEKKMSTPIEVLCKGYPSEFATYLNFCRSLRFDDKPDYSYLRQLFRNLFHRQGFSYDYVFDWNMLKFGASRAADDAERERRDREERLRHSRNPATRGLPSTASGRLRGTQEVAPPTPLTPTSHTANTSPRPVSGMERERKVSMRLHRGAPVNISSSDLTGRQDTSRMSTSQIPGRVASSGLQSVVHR

Cc1cccc(-c2nc(-c3ccc(C(N)=O)cc3)[nH]c2-c2ccncc2)c1 [IM-39, 4-(5(4)-(pyridin-4-yl)-4(5)-(m-tolyl)-1H-imidazol-2-yl)benzamide]
IC50 ([1]; Table 3, read-out: IC50 CK1δ): 787 nM | IC50 ([1]; read-out: CK1δ IC50 ± SEM): 787 ± 98 nM | IC50 [2]: 2.7 ± 0.3 nM | IC50 ([3]; Table 3, read-out: IC50 Ck1ε): 300 nM | IC50 ([3]; read-out: CK1ϵ IC50 ± SEM): 300 ± 16 nM

COC(=O)c1ccc(-c2nc(-c3cccc(C)c3)c(-c3ccncc3)[nH]2)cc1 [IM-40, Methyl 4-(5(4)-(pyridin-4-yl)-4(5)-(m-tolyl)-1H-imidazol-2-yl)benzoate]
inhibition at 1 µM [1]: 10% | IC50 [2]: 3.7 ± 0.7 nM | inhibition at 1 µM [3]: 43%

Cc1cccc(-c2nc(C#CCCO)[nH]c2-c2ccncc2)c1 [IM-41, 4-(5(4)-(pyridin-4-yl)-4(5)-(m-tolyl)-1H-imidazol-2-yl)but-3-yn-1-ol]
inhibition at 1 µM [1]: 11% | IC50 [2]: 47 ± 5 nM | inhibition at 1 µM [3]: 38%

Cc1cccc(-c2nc(CN(C)C)[nH]c2-c2ccncc2)c1 [IM-42, N,N-dimethyl-1-(5(4)-(pyridin-4-yl)-4(5)-(m-tolyl)-1H-imidazol-2-yl)methanamine]
inhibition at 1 µM [1]: 3% | IC50 [2]: 26 ± 3 nM | inhibition at 1 µM [3]: 29%

Cc1cccc(-c2nc[nH]c2-c2ccncc2)c1 [IM-44, 4-(4(5)-(m-tolyl)-1H-imidazol-5(4)-yl)pyridine]
inhibition at 1 µM [1]: 4% | IC50 [2]: 45 ± 8 nM | inhibition at 1 µM [3]: 42%

Cc1ccc2nc(NC(=O)CSc3nc4c(c(=O)n3-c3ccccc3)SCC4)sc2c1 [IWP-2, reference compound]
Average GFP % ([4]; Induction Day 2): 4.8% | Average GFP μm^2 ([4]; Induction Day 2): 19.6 μm^2 | Average Area μm^2 ([4]; Induction Day 2): 362.9 μm^2 | Average GFP % ([4]; Induction Day 3): 38.4% | Average GFP μm^2 ([4]; Induction Day 3): 216.9 μm^2 | Average Area μm^2 ([4]; Induction Day 3): 604.5 μm^2 | IC50 [5]: 27 nM | Cell growth ([6]; CHIR99021 then 5 μM days 4-8): strongly reduced cell growth | Cardiomyocyte functionality ([6]; combination with CHIR99021, days 4-8): reduced functionality

Oc1ccc(-c2nc(-c3ccc(F)cc3)c(-c3ccncc3)[nH]2)cc1 [SB202190, reference compound]
IC50 ([1]; Table 3, read-out: IC50 CK1δ): 53 nM | IC50 ([1]; read-out: CK1δ IC50 ± SEM): 53 ± 7 nM | IC50 ([3]; Table 3, read-out: IC50 Ck1ε): 83 nM | IC50 ([3]; read-out: CK1ϵ IC50 ± SEM): 83 ± 4 nM | IC50 [7]: […]

Skepinone-L
IC50 [8]: 40 nM | IC50 [9]: 5 nM
